According to the NIST ThermoML archive (doi:10.1016/j.jct.2007.11.010):
Numbers after ± are expanded uncertainties.

conditions: 293.15 K; 101.33 kPa; Liquid

| SMILES | mass density |
| --- | --- |
| CCC(C)O (stereo not given) [butan-2-ol] | 805.56 ± 1.3 kg/m3 |
| CCO [ethanol] | 788.33 ± 0.49 kg/m3 |
| CC(C)O [propan-2-ol] | 785.18 ± 0.5 kg/m3 |

Further lines, results first:

| mass density | SMILES |
| --- | --- |
| 1076.58 ± 0.97 kg/m3 | OCCN1CCOCC1 [4-morpholineethanol] |
| 809.52 ± 0.46 kg/m3 | CCCCO [butan-1-ol] |
| 803.56 ± 0.47 kg/m3 | CCCO [propan-1-ol] |

same assay, conditions: 298.15 K; 101.33 kPa; Liquid

| SMILES | mass density |
| --- | --- |
| CCC(C)O (stereo not given) [butan-2-ol] | 802.43 ± 1.4 kg/m3 |
| CCO [ethanol] | 784.97 ± 0.5 kg/m3 |
| CC(C)O [propan-2-ol] | 781.31 ± 0.5 kg/m3 |

Second part, the compound after the results:

| mass density | SMILES |
| --- | --- |
| 1071.3 ± 0.94 kg/m3 | OCCN1CCOCC1 [4-morpholineethanol] |
| 805.88 ± 0.47 kg/m3 | CCCCO [butan-1-ol] |
| 799.71 ± 0.48 kg/m3 | CCCO [propan-1-ol] |

same assay, conditions: 303.15 K; 101.33 kPa; Liquid

| SMILES | mass density |
| --- | --- |
| CCC(C)O (stereo not given) [butan-2-ol] | 797.76 ± 1.4 kg/m3 |
| CCO [ethanol] | 780.72 ± 0.5 kg/m3 |
| CC(C)O [propan-2-ol] | 776.66 ± 0.51 kg/m3 |

Other lines, results leading:

| mass density | SMILES |
| --- | --- |
| 1066.51 ± 0.92 kg/m3 | OCCN1CCOCC1 [4-morpholineethanol] |
| 801.99 ± 0.47 kg/m3 | CCCCO [butan-1-ol] |
| 795.58 ± 0.48 kg/m3 | CCCO [propan-1-ol] |

same assay, conditions: 313.15 K; 101.33 kPa; Liquid

| SMILES | mass density |
| --- | --- |
| CCC(C)O (stereo not given) [butan-2-ol] | 790.11 ± 1.4 kg/m3 |
| CCO [ethanol] | 772.61 ± 0.52 kg/m3 |
| CC(C)O [propan-2-ol] | 767.83 ± 0.52 kg/m3 |

Results, then the compound that gave them:

| mass density | SMILES |
| --- | --- |
| 1059.19 ± 0.88 kg/m3 | OCCN1CCOCC1 [4-morpholineethanol] |
| 794.34 ± 0.48 kg/m3 | CCCCO [butan-1-ol] |
| 787.34 ± 0.49 kg/m3 | CCCO [propan-1-ol] |

same assay, conditions: 323.15 K; 101.33 kPa; Liquid

| SMILES | mass density |
| --- | --- |
| CCC(C)O (stereo not given) [butan-2-ol] | 784.92 ± 1.4 kg/m3 |
| CCO [ethanol] | 764.14 ± 0.53 kg/m3 |
| CC(C)O [propan-2-ol] | 758.71 ± 0.54 kg/m3 |

Now from value to compound:

| mass density | SMILES |
| --- | --- |
| 1052.64 ± 0.84 kg/m3 | OCCN1CCOCC1 [4-morpholineethanol] |
| 786.67 ± 0.5 kg/m3 | CCCCO [butan-1-ol] |
| 778.97 ± 0.51 kg/m3 | CCCO [propan-1-ol] |
